# Results reported in patent publication US12186304B2, “Method for treating cancer by combination of IAP inhibitor and modulator of immune checkpoint molecule” (ASCENTAGE PHARMA (SUZHOU) CO., LTD., priority 2018, dated 2025).
# How the values were obtained:
# [1] = tested on: MC38 colon cancer; assay: Tumor growth in MC38 homologous mouse colon cancer model; format: in vivo
# Procedure: (§1) Cell inoculation method was used to establish a […] tumor-immunized normal mouse subcutaneous homograft tumor model: tumor cells in logarithmic growth phase were collected, counted, and then resuspended in 1×PBS. The concentration of the cell suspension was adjusted to 2.5-5×10^7/mL. Tumor cells, 5-10×10^6/0.2 mL/mouse, were inoculated subcutaneously in the right back of the immunized normal mouse with a 1 mL syringe ([…]). All animal experimental operations were strictly in accordance with standards for use and management of laboratory animals by Gima Gene Co., Ltd and Suzhou Yasheng Pharmaceutical Co., Ltd. Relevant parameters were calculated with reference to China's NMPA “Guidelines for Non-clinical Research Techniques of Cytotoxic Antitumor Drugs”.
# (§2) Tumor volume (TV) was calculated as TV=a×b^2/2, wherein a and b represented the length and width of tumor measurement, respectively.
# (§3) Relative tumor volume (RTV) was calculated as RTV=Vt/V1, wherein V1 was the tumor volume at the time of grouping administration, and Vt was the tumor volume measured on day t after administration.
# The evaluation index of anti-tumor activity was relative tumor proliferation rate T/C (%), and was calculated as: relative tumor proliferation rate T/C (%)=(TRTV/CRTV)×100%, wherein TRTV was RTV in treatment group, and CRTV was RTV in vehicle control group. […]
# [2] = tested on: effector memory T cells and NK cells; assay: Lymphocyte analysis (flow cytometry) in MC38 tumor-bearing mice; format: in vivo, mouse; details: MC38 model; APG-1387 0.2 mg/kg
# Procedure: In the experiment of tumor-infiltrated lymphocyte analysis, tissue samples such as spleen, draining lymph node, ascites, tumor or other tissues were collected 24 hours after the last drug administration. A single cell suspension of the spleen and draining lymph nodes was obtained, and the red blood cells were lysed after centrifugation, and the cells were filtered, followed by flow cytometric staining and flow cytometry. The tumor tissue was cut and centrifuged, and the tissue was digested, the cells were filtered. Ficoll was used to separate individual nuclei. Individual nuclei were collected for corresponding antibody flow staining and flow cytometry Ascites samples were collected and centrifuged, and the cells were filtered and subjected to flow cytometry staining and flow cytometry.
# The spleen, draining lymph nodes and tumor tissues of MC38 tumor-bearing mice were collected 24 hours after the last administration. Ascites of ID8-Luc tumor mice, tumor tissues of PLC/PRF/5 tumor mice were subjected to tumor infiltrating lymphocyte analysis. The proportion of lymphocytes in the APG-1387 treatment group and control group was analyzed to explore the potential mechanism of anti-tumor effect of APG-1387 combined with anti-PD-1 antibody.
# [3] = tested on: CT26 colorectal cancer; assay: Combination therapy in CT26 mouse colorectal cancer model; format: in vivo; details: APG-1387 0.2 mg/kg i.v. once daily, docetaxel 8 mg/kg i.p. once weekly, anti-PD-1 200 μg/mouse i.p. twice weekly
# Procedure: as §1
# Animal weight and tumor size were measured twice a week during the experiment. Animals were observed daily for status and the occurrence of death. Routine monitoring included the effects of tumor growth and treatment on the normal behaviors of animals, specifically including the activity, feeding and drinking, weight gain or loss, eyes, clothing hair, as well as other abnormalities of the laboratory animals. The deaths and clinical symptoms observed during the experiment were recorded in the original data. The whole process of administration, measurement of mouse weight and tumor volume was carried out in an ultra-clean bench. According to requirements of the experimental program, plasma and tumor tissue were collected, weighed and photographed for record after the end of last administration. Plasma and tumor samples were frozen at −80° C. for later use.
# as §2, §3
# The evaluation index of anti-tumor activity was relative tumor proliferation rate T/C (%), and was calculated as: relative tumor proliferation rate T/C (%)=(TRTV/CRTV)×100%, wherein TRTV was RTV in treatment group, and CRTV was RTV in vehicle control group.
# Tumor remission rate (%) was the number of SD (stable disease), PR (partial regression) and CR (complete regression) in tumor-bearing mice after treatment divided by the total number of mice in that group×100%. CR refers to the complete regression of the tumor, which means the tumor is inaccessible after treatment. PR refers to the partial regression of the tumor, which means tumor volume becomes smaller than before treatment. SD refers to stable tumor progression, which means tumor volume is the same as before treatment. Change of body weight (%)=(measurement of body weight−body weight when grouping)/body weight when grouping×100%.
# Efficacy evaluation criteria: according to China's NMPA “Guidelines for Non-clinical Research Techniques of Cytotoxic Antitumor Drugs” (November 2006), T/C (%) value 40% and p<0.05 by statistical analysis were considered as efficacious. If the weight loss of mice exceeded 20%, or the drug-related death percentage exceeded 20%, the drug dose was considered to be severely toxic.
# According to Clarke R., Issues in experimental design and endpoint analysis in the study of experimental cytotoxic agents in vivo in breast cancer and other models [J].
# A tumor model of CT26 colorectal cancer mouse was established, and the combined anti-tumor effect of APG-1387 with anti-PD-1 antibody and docetaxel was evaluated on this model. The administration regimen was as follows:
# APG-1387 monotherapy group: 0.2 mg/kg, intravenous injection, once daily for a total of 17 days;
# Docetaxel monotherapy group: 8 mg/kg, intraperitoneal injection, once weekly for a total of 17 days;
# Anti-PD-1 antibody monotherapy group: 200 μg/mouse, intraperitoneal injection, twice weekly for a total of 2.5 weeks (i.e., 17 days); […]
# [4] = Phase I study: APG-1387 pharmacokinetics in plasma (LC-MS/MS); format: in vivo, human
# Procedure: APG-1387 was IV administered for 30 minutes once weekly in a 21-day-cycle.
# [5] = tested on: Murine MC38 colon cancer cells; assay: Subcutaneous xenograft model of murine MC38 colon cancer; format: in vivo, female C57BL/6 mice; details: MC38 s.c.
# Procedure: • (1) APG-1387: provided by Jiangsu Ascentage Pharmaceutical Development Co., Ltd. The batch number is R12JA076140-A2 and PAPG-1387-DP-201305A. Preserved at 4° C., away from the light and sealed. APG-1387 was administered intravenously (i.v.) or intraperitoneally (i.p.) or at a dosage of 10 mL/kg. APG-1387 was dissolved in 5% castor oil/10% PEG400/85% normal saline. • (2) Anti-PD-1 antibody: purchased from BioXcell. The article number is BE0146 and BE0273. Preserved at 4° C. and sealed. The anti-PD-1 antibody was administered intraperitoneally at a concentration of 100 μg per mice or 200 μg per mice. • (3) Isotype control (anti-IgG): purchased from BioXcell, the product number is BE0089. […]
# The mice were injected subcutaneously with 0.5-10×10^6 cells or in the ovary with 6×10^6 cells in situ to build the tumor xenograft model. […] For the orthotopic model, tumor growth was measured by examining in vivo fluorescence images 10 days after inoculation. […] Body weight and tumor size were measured twice per week during the experiment. […]
# Using the fluorescence imaging technique, the strength of the fluorescent signal can represent the growth and metastasis of tumors in vivo.
# The tumor growth curve and the animal body weight curve were plotted, with time on the X-axis and tumor volume and animal body weight on the Y-axis. […] All data were analyzed using SPSS 18.0 (*P<0.05, **P<0.01, ***P<0.001, ****P<0.0001).
# [6] = tested on: metastatic pancreatic cancer; assay: Phase I study: anti-tumor activity in pancreatic cancer; format: in vivo, human
# [7] = tested on: advanced or metastatic solid tumor; assay: Phase I study: anti-tumor activity in all tumor types; format: in vivo, human
# [8] = over the range of 20 to 45 mg, preliminary PK data
smiles,measurement,setting,value
CN[C@@H](C)C(=O)N[C@H]1CN(S(=O)(=O)c2cccc(S(=O)(=O)N3CC[C@H]4CC[C@@H](C(=O)NC(c5ccccc5)c5ccccc5)N4C(=O)[C@@H](NC(=O)[C@H](C)NC)C3)c2)CC[C@H]2CC[C@@H](C(=O)NC(c3ccccc3)c3ccccc3)N2C1=O [APG-1387],RTV on day 14 after administration,"[1]; APG-1387 0.2 mg/kg i.v., anti-PD-1 5 mg/kg i.p., twice weekly, 2 times",11.0 ± 1.2
same,T/C (%) value on day 14 after administration,[1]; day 14,70%
same,proportion of NK cells in the spleen and lymph nodes,[2],no significant effect
same,T/C (%) value on day 18 after administration,[3],105%
same,increase in AUC,[4]; [8],approximately dose proportional
same,increase in Cmax,[4]; [8],approximately dose proportional
same,accumulation,[4]; weekly dosing regimen,no significant accumulation
same,median survival time,[5],33.0 days
same,T/C value on the 22nd day after administration,"[5]; APG-1387 0.2 mg/kg i.v., anti-PD-1 100 μg/mouse i.p., q3d x 2 doses",69.6%
same,change of one mPC patient with confirmed SD,[6]; 45 mg,+6%
same,treatment duration of one mPC patient with confirmed SD,[6]; 45 mg,> 9 cycles
same,"DCR (disease control rate, SD above)",[6]; pancreatic cancer,4/10
same,"ORR (objective response rate, CR + PR)",[6]; pancreatic cancer,0
same,Best response: CR,"[6]; pancreatic cancer, patients",0
same,Best response: PD,"[6]; pancreatic cancer, patients",4
same,Best response: PR,"[6]; pancreatic cancer, patients",0
same,Best response: SD,"[6]; pancreatic cancer, patients",4
same,"DCR (disease control rate, SD above)",[7],6/24
same,"ORR (objective response rate, CR + PR)",[7],0
same,Best response: CR,[7]; patients,0
same,Best response: PD,[7]; patients,15
same,Best response: PR,[7]; patients,0
same,Best response: SD,[7]; patients,6
